The target in data set [1] is T1, Nox2 (Homo sapiens, UniProt P04839).
T1 construct: endogenous in cells
T1 sequence (P04839 2-570 limits assumed): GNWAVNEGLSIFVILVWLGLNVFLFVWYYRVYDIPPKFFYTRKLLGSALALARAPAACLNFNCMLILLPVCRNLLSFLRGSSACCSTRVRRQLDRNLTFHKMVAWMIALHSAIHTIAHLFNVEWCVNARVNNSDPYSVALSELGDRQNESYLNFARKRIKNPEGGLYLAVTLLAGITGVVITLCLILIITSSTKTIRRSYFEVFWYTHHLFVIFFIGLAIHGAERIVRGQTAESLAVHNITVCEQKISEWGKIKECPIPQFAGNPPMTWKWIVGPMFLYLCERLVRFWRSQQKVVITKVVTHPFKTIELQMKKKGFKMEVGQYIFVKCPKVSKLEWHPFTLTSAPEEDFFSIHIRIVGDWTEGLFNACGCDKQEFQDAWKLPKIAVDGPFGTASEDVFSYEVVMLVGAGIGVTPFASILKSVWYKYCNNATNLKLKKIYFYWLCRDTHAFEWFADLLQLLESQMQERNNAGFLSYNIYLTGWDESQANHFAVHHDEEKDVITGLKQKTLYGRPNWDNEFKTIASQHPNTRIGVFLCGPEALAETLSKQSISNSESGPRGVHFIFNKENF
T1 sequence (P13498 2-195 partner limits assumed): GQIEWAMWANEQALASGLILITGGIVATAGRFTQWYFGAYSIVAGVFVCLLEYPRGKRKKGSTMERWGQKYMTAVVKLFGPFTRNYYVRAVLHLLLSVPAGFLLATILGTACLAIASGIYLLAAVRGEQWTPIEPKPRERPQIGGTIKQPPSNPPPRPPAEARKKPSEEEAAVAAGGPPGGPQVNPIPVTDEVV
Put plainly: CBA probe assay of H2O2 production by PMA-activated dHL60 cells. The data set is classed as cell-based. Conditions: for Nox2 inhibitory potency (SAR statement): replacement of the indole moiety, data not shown; for IC50: PMA (1 µM)-activated dHL60 cells, 30 min preincubation with inhibitor, read-out: IC50, inhibition of H2O2 production, CBA Assay; for Nox2 inhibitory activity: tested at concentrations of up to 50 µM. Here is the method:
(§1) Human promyelocytic leukemia HL60 cells (Sigma-Aldrich) were grown in RPMI 1640 medium (Gibco, 11875-093, Billings, MT, USA) supplemented with 10% FBS (Omega Scientific (Tarzana, CA, USA)), 100 units/mL penicillin, and 100 µg/mL streptomycin, and were incubated at 37 °C and 5% carbon dioxide (CO2). For differentiation to neutrophil-like cells, HL60 cells were pelleted and resuspended in fresh media containing 1 µM of all trans-retinoic acid and incubated for four to five days. Nox2 activation was achieved by treating differentiated HL60 (dHL60) cells with 1 µM PMA [24]. Human leukemia monocytic cells, THP-1, were grown in RPMI 1640 medium + GlutaMAX^TM (Gibco, 61870-036) and supplemented with 10% FBS, 10 mM HEPES, and 1 mM sodium pyruvate and incubated at 37 °C in 5% CO2 environment. To induce differentiation into macrophages, THP-1 cells were treated with PMA (100 ng/mL) for 48 h. To test the efficacy of Nox2 inhibitors, treatment was performed with or without the inhibitor, along with PMA [35].
(§2) Plate reader-based analyses of the production of O2^•− and H2O2 by PMA-activated dHL60 cells were performed according to a published protocol with minor modifications. Briefly, for the treatment of dHL60 cells with different concentrations of the compounds, 0.5 mL deep-well 96-well plates were used to dispense and store aliquots of their 10 mM DMSO solutions. Using a Multidrop™ PicoIT dispenser (Thermo Scientific), different volumes of the solutions of candidate Nox inhibitors (10 or 50 mM in DMSO) were injected into the bottom of 0.5 mL V-bottom 96-well plates; then, they were sealed with aluminum foil (VWR, Batavia, IL, USA) using a semiautomatic thermal sealer (BT LabSystems, St. Louis, MO, USA) and stored at −20 °C to reduce freeze-thawing the solutions. The plates with inhibitors were allowed to come to room temperature before the addition of the cell suspensions. dHL60 cells were pelleted and resuspended in HBSS (Invitrogen, Waltham, MA, USA) supplemented with 25 mM HEPES (pH 7.4) and 100 µM DTPA to a cell density of 2 × 10^5 cells/mL. dHL60 cells were added to the V-bottom plates at a volume of 210 µL/well. Next, cells were incubated with inhibitors for 30 min at 37 °C in a CO2-free incubator under ambient oxygen and then transferred to black, clear-bottom 96-well plates (200 µL/well) after incubation. Freshly prepared PMA plus probe solutions in HBSS (5× concentrated, 50 µL/well) included PMA (5 µM) with CBA (500 µM) or with Amplex Red (250 µM) plus HRP (0.5 U/mL) for H2O2 detection, or with HE (50 µM) plus DNA (0.5 mg/mL) for O2^•− detection. Once probes + PMA were added, plates were sealed with sealing film and immediately placed in the pre-warmed plate readers (37 °C). Fluorescence intensities were monitored kinetically from the bottom of the plates every 1.3 min for a period of 2 h using Beckman Coulter (Brea, CA, USA) DTX880 and BMG Labtech (Ortenberg, Germany) FLUOstar Omega plate readers. DMSO alone and DPI (10 µM) were used as negative and positive controls, respectively. […] The IC50 values were determined using at least five independent measurements, each consisting of technical quadruplicates per concentration.

A further data set has as its system dHL60 cells. Put plainly: Cell Titer Glo 2.0 cytotoxicity (ATP) assay in PMA-stimulated dHL60 cells. The data set is classed as cell-based, human. As to conditions: for IC50: Homo sapiens, Cell Titer Glo 2.0, PMA-stimulated dHL60 cells, 2.5 h with inhibitor, unit not printed in Table 3, taken from text, read-out: IC50, Viability Assay. How it is done:
The cytotoxicity of the inhibitors was tested by measuring the amount of ATP in the wells containing PMA-stimulated dHL60 cells and the candidate inhibitors. Cells were prepared as described for the plate reader-based measurements for H2O2, except that the cells were maintained with the inhibitors in a CO2-free incubator at 37 °C for 2.5 h to mirror the conditions during the fluorescence-based monitoring of H2O2 described above. After incubation, cells (100 µL/well) were transferred to white 96-well plates (Greiner, Kremsmünster, Austria), and the total cellular ATP amount was determined using the Cell Titer Glo 2.0 (Promega) cytotoxicity assay (100 µL/well) by measuring the luminescence intensity using a Beckman Coulter DTX880 plate reader.
In general terms: In ATP-based viability assays light output follows the ATP content of the culture.

The test system of another data set is THP-1 cells. Description: qRT-PCR mRNA expression of Nox2 subunits and inflammatory mediators in PMA-treated THP-1 cells. The data set is classed as cell-based, human. As to conditions: 3 µM, 48 h with PMA 100 ng/mL. Here is the method: as §1
mRNA expression analysis was performed as previously described. Briefly, THP-1 cells were treated with PMA (100 ng/mL) with or without the Nox2 inhibitor TG15-132 (3.0 µM) for 48 h. RNA extraction was done using the Quick-RNA miniprep kit (cat. no. R1055, Zymo Research, Irvine, CA, USA) and followed by cDNA synthesis using the qScript cDNA superMix kit (cat. no. 84035, Quantabio, Beverly, MA, USA). Quantitative real-time PCR was performed using specific primers designed to amplify target genes (Table 2). Data obtained were analyzed and converted into fold changes in expression with respect to vehicle-treated cells.
On the technique in general: In qPCR the cycle at which signal appears reflects the starting amount.

The nature of data set [2]: Short-term (seven day) in vivo toxicity in mice. Set-up: species or system C57BL/6 mice. Conditions: 20 mg/kg, seven days, Figure 9B. How it is done:
All animal experiments were performed according to protocols and guidelines approved by the Emory University Animal Care and Use Committee. The in vivo toxicity of TG15-132 was assessed using C57BL/6 mice (cat. no. 027, Charles River Laboratories, Wilmington, MA, USA). Animals were injected daily (i.p.) with saline, vehicle (DMSO 10%, PEG400 30%, water 60%), or 20 mg/kg of TG15-132 in vehicle for seven days, with body weight recorded each day. At the end of treatment, organs were harvested to study organ weight loss, and blood was collected from each mouse via cardiac puncture, and serum was isolated. Serum was analyzed for kidney function using blood urea nitrogen and creatinine, liver function using alanine amino transferase, and tissue damage using lactate dehydrogenase.

The target in data set [3] is T1, Nox2. Description: Amplex Red/HRP assay of H2O2 production by PMA-activated dHL60 cells. The data set is classed as cell-based. As to conditions: for IC50: PMA (1 µM)-activated dHL60 cells, 30 min preincubation, read-out: IC50, inhibition of H2O2 production, Amplex Red Assay. Here is the method:
as §1, §2

The nature of data set [4]: In vivo pharmacokinetics / brain penetration, species not specified (rodent models). Conditions: brain; species and dose not stated; data not shown; read-out: brain-to-plasma ratio. The source says: Rapid metabolism and the inability to cross the BBB represent major obstacles in the application of bioactive agents in neurodegenerative diseases. Based on the premise that Nox2 plays a major role in oxidative damage and exacerbates neurodegenerative diseases, we envision applications of brain-permeable Nox2 inhibitors in mechanistic studies in vivo, and, long-term, in the development of novel therapeutic strategies. Therefore, we performed in vivo pharmacokinetics studies to determine the time profile of plasma concentration and accumulation of TG15-132 in the brain tissue of Sprague Dawley rats and C57BL6 mice.

For data set [5], the system named is Nox2. Set-up: method as in PMID 22726689. Conditions: library of >200,000 compounds; cited from earlier work.

By IC50 is commonly meant the point on the concentration scale where inhibition reaches its midpoint.

SMILES strings stand for the structures. Where a name gives a salt, the structure may show the parent alone. A value given as a limit tells only on which side of the number the result lay.

For the molecule `c1ccc2c(c1)[I+]c1ccccc1-2` [DPI, Diphenyleneiodonium chloride, reference compound], at Nox2 [1] (10 µM), the “inhibitory activity (positive control)” value is “consistently showed inhibitory activity”. The cytotoxic effects entry in the data set on dHL60 cells (10 µM, Cell Titer Glo 2.0) is recorded as “did not show any cytotoxic effects”.

For the molecule `CC(C)n1cc(-c2ccc3c(c2)N(C)CC3)c2c(NS(=O)(=O)c3ccn(C)n3)ccnc21` [GSK 2795039, reference compound], in the data set on THP-1 cells, the “expression of TNF compared with PMA-treated cells (Figure 7B)” value is reported as “increased”; the “mRNA expression vs PMA-treated cells, additional experiment (Figure 7B)” value was “did not reduce the expression of Nox2 components and inflammatory mediators”.

As to `CN(C)CCCn1c(SCCc2ccccn2)nc2ccc(Cl)cc2c1=O` [TG15-124], the “Nox2 inhibitory potency (SAR statement)” value at Nox2 [1] was “significant loss in Nox2 inhibitory potency”.

Consider `CN(C)CCCn1c(SCCc2ccccn2)nc2ccc(F)cc2c1=O` [TG15-131], for which, at Nox2 [1], the “Nox2 inhibitory potency (SAR statement)” value is listed as “significant loss in Nox2 inhibitory potency”.

Take `CN(C)CCCn1c(SCCc2c[nH]c3ccccc23)nc2ccc(F)cc2c1=O` [TG15-132•HCl]: the “liver or kidney function, tissue damage (serum BUN, CREAT, ALT, LDH)” value in data set [2] is reported as “did not lead to a negative effect”.

As for `CN(C)CCCn1c(SCCc2c[nH]c3ccccc23)nc2ccc(Cl)cc2c1=O` [TG15-139], the IC50 was 4.9 ± 2.3 µM at Nox2 [3], 3.1 ± 1.4 µM at Nox2 [1] and 14.1 ± 1.7 µM with dHL60 cells. In the data set on dHL60 cells (dHL60 cells, Figure 3D,E), the “cell viability at concentrations showing Nox2 inhibitory potency” value is on record as “no decrease in cell viability”. Besides, the Kp in data set [4] is over 23.

As to `CC(C)N1CCN(C(=O)CCCn2c(SCCc3c[nH]c4ccccc34)nc3ccc(F)cc3c2=O)CC1` [TG15-293], the concentration for half-maximal inhibition (IC50) worked out at 67.8 ± 2.6 µM at Nox2 [3], 23.6 ± 18.1 µM at Nox2 [1] and 38.3 ± 7.5 µM in the data set with dHL60 cells. Besides, the “fold less potency than TG17-57 in the Amplex Red assay” value at Nox2 [3] (relative to TG17-57) was “about 7 fold”. Also, the “fold less potency than TG17-57 in the CBA assay” value on Nox2 [1] (relative to TG17-57) is reported as “about 3 fold”.

Take `CN(C)CCCSc1nc2ccc(F)cc2c(=O)n1CCCN(C)C` [TG17-55]: the “Nox2 inhibitory potency (SAR statement)” value on Nox2 [1] is given as “eliminated potency”.

Consider `CCN1CCN(CCCn2c(SCCc3c[nH]c4ccccc34)nc3ccc(F)cc3c2=O)CC1` [TG17-56], for which the figures for the IC50 at Nox2 [3], at Nox2 [1] and in the data set on dHL60 cells were 7.8 ± 4 µM, 5.3 ± 0.6 µM and 16.7 ± 2.5 µM, respectively.

For `CC(C)N1CCN(CCCn2c(SCCc3c[nH]c4ccccc34)nc3ccc(F)cc3c2=O)CC1` [TG17-57], the half-inhibitory concentration (IC50) at Nox2 [3] worked out at 9.2 ± 0.4 µM; on Nox2 [1] it was 7 ± 2.8 µM; in the data set with dHL60 cells, 20.7 ± 5 µM.

As for `COc1cc(C(C)=O)ccc1O` [apocynin, reference compound], the Nox2 inhibitory activity entry on Nox2 [1] is “did not show Nox2 inhibitory activity”.

Regarding `COc1cc(C(C)=O)cc(-c2cc(C(C)=O)cc(OC)c2O)c1O` [diapocynin, reference compound], on Nox2 [1], the Nox2 inhibitory activity entry is reported as “did not show Nox2 inhibitory activity”.

Consider `O=c1c2ccccc2[se]n1-c1ccccc1` [ebselen], for which the “Nox2 inhibition in cell-free HTS” value in the data set with Nox2 [5] is listed as “modest Nox2 inhibitors”.

Values taken from article PMC10525516, “Novel NADPH Oxidase-2 Inhibitors as Potential Anti-Inflammatory and Neuroprotective Agents” (Antioxidants, 2023).
